Measurements reported in patent publication US4117121A, “Method of increasing bile flow and decreasing lipid levels” (Hoffmann-La Roche Inc., priority 1977, dated 1978).

Key:
bile flow [1] = test: Comparative effect on bile flow (Example 2); assay type: in vivo, female rats; conditions: 100 mg intragastrically, vs average bile of two hours preceding treatment
Experimental: Female rats, weighing approximately 250 g, were fasted overnight prior to surgery; water was allowed ad libitum. The surgical procedures involving cannulation of the upper part of the common bile duct were carried out under Penthrane anesthesia. A catheter placed in the avascular part of the stomach was used for intragastric administration of emulsion; another catheter was placed in the duodenum. After surgery the rats were kept in restraining cages. Intraduodenal infusion of bile (collected previously from donors) was then started at the rate of 0.9 ml/hr. The infusion pressure was kept constant by means of a pump. Hydration was maintained by allowing the animals to drink saline ad libitum.
All rats were allowed~20 hours to recover from surgery. During this post-surgical period bile was collected in pooled samples of 16-18 hours. Having achieved steady hourly flow, the two samples obtained prior to the actual experiment were collected individually and considered as a control standard for each rat.
Bile samples were collected hourly, over a 24-hour period. The volume was measured to the nearest 0.1 ml.
The values in Table III were expressed for the purpose of the analysis, as a percent change from average bile collected in the two hours immediately preceding treatment.

bile flow [2] = test: Stimulation of bile flow (Example 1); assay type: in vivo, female albino rats (Charles River); conditions: 100 mg orally, over the Na-TC control
Source text: (§1) In these studies female albino rats (Charles River), weighing 300 ± 10 g were kept on a Purina chow diet ad libitum until the time of operation. […] This preparation enabled the production of lymph at a constant rate, the infusion of a bile salt, and the simultaneous collection of bile.
(§2) All animals received, after operation, a continuous duo denal infusion of sodium taurocholate (Na-TC) in 0.85% NaCl. One day after operation, the rats were given, by stomach intubation, an emulsion containing about 4% triolein, 20 μC of 4-^14 C-cholesterol (Specific Activity 61.7 mC/mM, 159 μC/mg), 2 mg of cholesterol, in addition to protein, carbohydrate, and saline. Both the Na-TC and the cholesterol carrier employed gave a single spot on either thin layer or glass fiber paper chromatograph so no further purification was attempted. The commercial glyceryl trioleate contained a large percentage of di- and monoolein. Triolein was, therefore, purified by passage through a silicic acid column; the final product gave a single spot on either glass fiber paper or thin layer chromatography.
(§3) To 4 ml of this emulsion was added 100 mg of either Na-TC (control group) or compounds A through D. This mixture was given orally to the animals.
(§4) The sampling of thoracic duct lymph and of bile was divided into two collecting periods, 0-8 and 9-24 h after emulsion administration.
In this table the results are expressed as the % increase in bile flow over the control.

[3] = system: intestinal absorbtion of CHOLESTEROL; test: Intestinal absorption of cholesterol: appearance of 4-14C-cholesterol in thoracic duct lymph; assay type: in vivo, female albino rats (Charles River); conditions: 100 mg orally, vs Na-TC control, 14C-cholesterol in lymph; for % decrease of cholesterol, 0-8 hours: 0-8 hours after emulsion; for % decrease of cholesterol, 9-24 hours: 9-24 hours after emulsion
Source text: as §1, §2, §3, §4
Lymph specimens were lyophilized and the lipids in the residue were extracted with ethanol-isopropyl ether, 2:1 parts by volume, by procedure described in Gallo-Torres, et al; Biophys. Acta, 176 605-615 (1969). An aliquot of the lipid extract was placed on a small piece of glass fiber paper and counted. Another aliquot was used for the separation of cholesterol and its esters by glass fiber paper chromatography.
The effect of compounds A through D derivatives on the appearance of total ^14 C-cholesterol in the thoracic duct lymph of rats is summarized in Table I. Of the dose administered to the control animals, 5 × 10^5 dpm were recovered in the first 8 h and 3.4 × 10^6 dpm in the period of 9-24 h following administration of the emulsion. […] The tolerance of cholesterol in Table I is the % decrease in the 4-^14 C-cholesterol over the control appearing in the lymph during the specified period.

triglyceride absorption = test: Inhibition of absorption of dietary triglyceride after oral corn oil load; assay type: in vivo, rats
Experimental: The ability of compound A to inhibit the absorption of dietary triglyceride in rats is determined by analyzing the rise in serum triglycerides after an oral load of corn oil. To 24 hours fasted rats (6 per group), compound A was administered orally at 1.1 mmoles/kg 15 minutes before a single oral dose of corn oil ([…]). Blood samples (0.4 ml) were collected from the rat tail 0, 2, 4, 6, 8 and 24 hours after compound administration. Each rat is its own control. Plasma samples were analyzed for triglyceride content by the procedure set forth in Kessler and H. Lederer, Tehnicon Symposium 1965 Automation in Analytical Chemistry Ed. L. Skeggs, published Mediad Inc. N.Y. (1966)pp341. The data in Table V is expressed as mg% change in plasma triglyceride levels compared to zero time control values at each time interval. This change in plasma triglycerides was determined by calculating the difference between the triglyceride level at each time point compared to zero time control level.
The procedure of Example 4 was followed except groups of 4 were utilized. Compound B was administered.

rat pancreatic lipase = target: T1, rat pancreatic lipase (Rattus norvegicus, UniProt P27657); test: Inhibition of rat pancreatic lipase in vitro; assay type: biochemical; conditions: 14C-triolein emulsion, pH 8.6, 20 min at 37° C.
T1 sequence (P27657 17-465): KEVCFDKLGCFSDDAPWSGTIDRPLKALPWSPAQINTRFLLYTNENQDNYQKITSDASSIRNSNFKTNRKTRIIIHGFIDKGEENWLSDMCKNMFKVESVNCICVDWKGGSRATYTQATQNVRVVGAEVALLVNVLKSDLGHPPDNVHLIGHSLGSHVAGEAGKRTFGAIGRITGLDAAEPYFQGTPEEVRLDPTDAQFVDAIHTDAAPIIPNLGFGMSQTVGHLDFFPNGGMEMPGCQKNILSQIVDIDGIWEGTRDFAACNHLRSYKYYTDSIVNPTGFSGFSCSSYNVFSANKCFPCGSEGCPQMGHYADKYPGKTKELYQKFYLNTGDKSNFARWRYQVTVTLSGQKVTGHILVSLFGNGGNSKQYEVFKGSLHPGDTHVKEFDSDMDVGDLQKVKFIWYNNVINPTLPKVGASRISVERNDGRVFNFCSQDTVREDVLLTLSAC
Experimental: Dietary long-chain triglycerides must be hydrolyzed by pancreatic lipase in the duodenum before absorption can occur. […] The capacity of compounds B and C to inhibit rat pancreatic lipase in vitro was investigated. The ability of compounds to inhibit rat pancreatic lipase is determined by analyzing the nmoles of free fatty acid [oleic acid] released from [^14 C]-triolein. Compounds of B and C are added to an emulsion consisting of: 200,000 dpm ^14 C-triolein, 7.5 mg triolein, 0.75 mg sodium taurocholate, 15 mg bovine serum albumin and 0.9 ml 0.2 M tris-HCl - 0.15 M NaCl, pH 8.6, per assay. Water and/or pancreatic lipase is added to make an assay volume of 1.0 ml. The emulsion is incubated for 20 min at 37° C. in a shaking water bath. The reaction is stopped by the addition of isopropanol; H2 SO4 (40:1). The lipids are extracted twice with 3 ml volumes of hexane. The liberated fatty acids are extracted with 2 ml of 0.1 N KOH in 50% methanol. A 1 ml aliquot of the KOH layer is placed in a scintillation vial with 10 ml of 2,5-bis-2- (5-tertiarybutyl benzoxazolyl)thiophene. The radioactivity is determined in a scintillation counter. Data are expressed as nmoles free fatty acid [oleic acid] released.

[4] = system: cholesterol-7α-hydroxylase; test: Effect on activity of cholesterol-7α-hydroxylase; conditions: in words

C[C@H](CCC(=O)O)[C@H]1CC[C@H]2[C@@H]3[C@H](O)C[C@@H]4C[C@H](O)CC[C@]4(C)[C@H]3CC[C@]12C [CDC, chenodeoxycholic acid]
% increase in Bile Flow, 0-12 hours (bile flow [1]): +504% | % increase in Bile Flow, 13-24 hours (bile flow [1]): +9% | % increase in Bile Flow, overall 24 hour period (bile flow [1]): +513%

C[C@]12CC[C@@H](O)C[C@H]1CC[C@@H]1[C@@H]2C[C@H](O)[C@]2(C)[C@@H](C(=O)O)CC[C@@H]12 [Compound A, 3α, 12α-dihydroxy-etiocholane-17β-carboxylicacid]
% increase of Bile Flow, 0-8 hours (bile flow [2]): +18% | % increase of Bile Flow, 9-24 hours (bile flow [2]): -3% | % decrease of cholesterol, 0-8 hours [3]: 0% | % decrease of cholesterol, 9-24 hours [3]: 79% | % increase in Bile Flow, 0-12 hours (bile flow [1]): +286% | % increase in Bile Flow, 13-24 hours (bile flow [1]): +79% | % increase in Bile Flow, overall 24 hour period (bile flow [1]): +365% | Change in Plasma Triglyceride Levels, 4 hr (triglyceride absorption; 4 hr, 1.1 mmoles/kg orally, 15 minutes before corn oil, 6 per group, vs zero time): 50 ± 13 mg% | Change in Plasma Triglyceride Levels, 6 hr (triglyceride absorption; 6 hr, 1.1 mmoles/kg orally, 15 minutes before corn oil, 6 per group, vs zero time): 113 ± 34 mg% | Change in Plasma Triglyceride Levels, 8 hr (triglyceride absorption; 8 hr, 1.1 mmoles/kg orally, 15 minutes before corn oil, 6 per group, vs zero time, *p<0.05): 164 ± 40 mg% | Change in Plasma Triglyceride Levels, 24 hr (triglyceride absorption; 24 hr, 1.1 mmoles/kg orally, 15 minutes before corn oil, 6 per group, vs zero time): 83 ± 11 mg% | Change in Plasma Triglyceride Levels, 2 hr (triglyceride absorption; po, 1100 umol/kg): 37 ± 9 mg%

C[C@H](C(=O)O)[C@H]1CC[C@H]2[C@@H]3CC[C@@H]4C[C@H](O)CC[C@]4(C)[C@H]3C[C@H](O)[C@]12C [Compound B, 3α, 12α-dihydroxy-5β-23,24-bisnorcholanic acid]
% increase of Bile Flow, 0-8 hours (bile flow [2]): +38% | % increase of Bile Flow, 9-24 hours (bile flow [2]): +47% | % decrease of cholesterol, 0-8 hours [3]: 0% | % decrease of cholesterol, 9-24 hours [3]: 0% | % increase in Bile Flow, 0-12 hours (bile flow [1]): +517% | % increase in Bile Flow, 13-24 hours (bile flow [1]): +113% | % increase in Bile Flow, overall 24 hour period (bile flow [1]): +630% | Ki (rat pancreatic lipase): 14 mM | Change in Plasma Triglycerides, 2 hr (triglyceride absorption; Example 5, 2 hr, procedure of Example 4, groups of 4): -3 mg% | Change in Plasma Triglycerides, 4 hr (triglyceride absorption; Example 5, 4 hr, procedure of Example 4, groups of 4): 7 mg% | Change in Plasma Triglycerides, 6 hr (triglyceride absorption; Example 5, 6 hr, procedure of Example 4, groups of 4): 15 mg% | Change in Plasma Triglycerides, 8 hr (triglyceride absorption; Example 5, 8 hr, procedure of Example 4, groups of 4): 54 mg% | Change in Plasma Triglycerides, 24 hr (triglyceride absorption; Example 5, 24 hr, procedure of Example 4, groups of 4): 30 mg%

C[C@H](CC(=O)O)[C@H]1CC[C@H]2[C@@H]3CC[C@@H]4C[C@H](O)CC[C@]4(C)[C@H]3C[C@H](O)[C@]12C [Compound C, 3α, 12α-dihydroxy-5-β-norcholanic acid]
% increase of Bile Flow, 0-8 hours (bile flow [2]): +4% | % increase of Bile Flow, 9-24 hours (bile flow [2]): +30% | % decrease of cholesterol, 0-8 hours [3]: 40% | % decrease of cholesterol, 9-24 hours [3]: 53% | Ki (rat pancreatic lipase): 1 mM

C[C@H](CCO)[C@H]1CC[C@H]2[C@@H]3CC[C@@H]4C[C@H](O)CC[C@]4(C)[C@H]3C[C@H](O)[C@]12C [Compound D, 3α, 12α, 23-trihydroxy-5β-24-norcholane]
% increase of Bile Flow, 0-8 hours (bile flow [2]): +22% | % increase of Bile Flow, 9-24 hours (bile flow [2]): +14% | % decrease of cholesterol, 0-8 hours [3]: 84% | % decrease of cholesterol, 9-24 hours [3]: 44%

C[C@H](CCC(=O)O)[C@H]1CC[C@H]2[C@@H]3[C@H](O)C[C@@H]4C[C@H](O)CC[C@]4(C)[C@H]3C[C@H](O)[C@]12C [cholic acid, 3α, 7α, 12α-trihydroxy-5β-cholanic acid]
% increase in Bile Flow, 0-12 hours (bile flow [1]): +161% | % increase in Bile Flow, overall 24 hour period (bile flow [1]): +38% | effect on the activity of cholesterol-7α-hydroxylase [4]: adverse effect

C[C@H](CCC(=O)O)[C@H]1CC[C@H]2[C@@H]3CC[C@@H]4C[C@H](O)CC[C@]4(C)[C@H]3C[C@H](O)[C@]12C [deoxycholic acid, 3α, 12α-dihydroxy-5β-cholanic acid]
% increase in Bile Flow, 0-12 hours (bile flow [1]): +335% | % increase in Bile Flow, overall 24 hour period (bile flow [1]): +219% | effect on the activity of cholesterol-7α-hydroxylase [4]: adverse effect
